From ChEMBL document CHEMBL1201862, “PubChem BioAssay data set” (2004)
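Where inhibition never reached the appropriate level, the endpoint shown equals the highest concentration tested. Otherwise, values were interpolated linearly from a five-concentration, 48-hour dose response in 96-well plates. GI50 marks 50% less growth.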 The source made the active and inactive calls. Rule as the data show it: active = GI50 up to about 1.1 µM and inactive = higher.

Tests used:
Assay in all cases: DTP human tumour cell line panel, 48 h
MOLT-4 = system: MOLT-4
NCI/ADR-RES = system: NCI/ADR-RES
U-251 = system: U-251
SNB-19 = system: SNB-19
786-0 = system: 786-0
COLO 205 = system: COLO 205
BT-549 = system: BT-549
SW-620 = system: SW-620
OVCAR-4 = system: OVCAR-4
HOP-62 = system: HOP-62
MCF7 = system: MCF7
NCI-H226 = system: NCI-H226
OVCAR-8 = system: OVCAR-8
IGROV-1 = system: IGROV-1
SF-268 = system: SF-268
CAKI-1 = system: CAKI-1
HCT-116 = system: HCT-116
SR = system: SR
UACC-257 = system: UACC-257
NCI-H460 = system: NCI-H460

| SMILES | GI50 (MOLT-4) | GI50 (NCI/ADR-RES) | GI50 (U-251) | GI50 (SNB-19) | GI50 (786-0) | GI50 (COLO 205) | GI50 (BT-549) | GI50 (SW-620) | GI50 (OVCAR-4) | GI50 (HOP-62) | GI50 (MCF7) | GI50 (NCI-H226) | GI50 (OVCAR-8) | GI50 (IGROV-1) | GI50 (SF-268) | GI50 (CAKI-1) | GI50 (HCT-116) | GI50 (SR) | GI50 (UACC-257) | GI50 (NCI-H460) |
| --- | --- | --- | --- | --- | --- | --- | --- | --- | --- | --- | --- | --- | --- | --- | --- | --- | --- | --- | --- | --- |
| CN1CCOC1(C)c1ccccc1 (stereo not given) | > 100 µM (inactive) | > 100 µM (inactive) | > 100 µM (inactive) | > 100 µM (inactive) | > 100 µM (inactive) | > 100 µM (inactive) | > 100 µM (inactive) | > 100 µM (inactive) | > 100 µM (inactive) | > 100 µM (inactive) | > 100 µM (inactive) | > 100 µM (inactive) | > 100 µM (inactive) | > 100 µM (inactive) | > 100 µM (inactive) | > 100 µM (inactive) | > 100 µM (inactive) | > 100 µM (inactive) | > 100 µM (inactive) | > 100 µM (inactive) |
| Cn1c2ccccc2n2c3ccccc3c3nnc(N)c-3c12 | 7.67 µM (inactive) | > 100 µM (inactive) | 0.673 µM (active) | 1.45 µM (inactive) | 0.847 µM (active) | 32.4 µM (inactive) | 2.25 µM (inactive) | 57.8 µM (inactive) | 41 µM (inactive) | 9.2 µM (inactive) | 19.2 µM (inactive) | > 93.1 µM (inactive) | 8.18 µM (inactive) | > 100 µM (inactive) | 0.589 µM (active) | 76.4 µM (inactive) | 35.2 µM (inactive) | 26.7 µM (inactive) | 51.1 µM (inactive) | > 60.4 µM (inactive) |
| CC(NNC(=O)c1ccncc1)c1ccc(Cl)cc1Cl (stereo not given) | 83.8 µM (inactive) | 93.8 µM (inactive) | > 100 µM (inactive) | > 100 µM (inactive) | > 100 µM (inactive) | > 100 µM (inactive) | > 100 µM (inactive) | > 100 µM (inactive) | > 100 µM (inactive) | 88.5 µM (inactive) | > 100 µM (inactive) | > 100 µM (inactive) | > 100 µM (inactive) | > 100 µM (inactive) | > 100 µM (inactive) | > 100 µM (inactive) | > 100 µM (inactive) | 55.3 µM (inactive) | > 100 µM (inactive) | 51.2 µM (inactive) |
| O=C1Nc2ccccc2/C1=C1/Nc2ccccc2/C1=N/OCCO | 0.8 µM (active) | > 100 µM (inactive) | > 100 µM (inactive) | > 100 µM (inactive) | 13 µM (inactive) | 3.99 µM (inactive) | 50.9 µM (inactive) | 14 µM (inactive) | > 100 µM (inactive) | > 100 µM (inactive) | 1.86 µM (inactive) | > 100 µM (inactive) | > 100 µM (inactive) | 0.274 µM (active) | > 100 µM (inactive) | 0.175 µM (active) | 0.481 µM (active) | 0.546 µM (active) | > 100 µM (inactive) | 0.824 µM (active) |
| Cc1cc(=O)n2nc(CCl)sc2n1 | 11.8 µM (inactive) | 20.7 µM (inactive) | 5.13 µM (inactive) | 15.8 µM (inactive) | 15.7 µM (inactive) | 18.7 µM (inactive) | 3.58 µM (inactive) | 15.8 µM (inactive) | 17.8 µM (inactive) | 18.1 µM (inactive) | 13.8 µM (inactive) | 13.9 µM (inactive) | 16.7 µM (inactive) | 14.9 µM (inactive) | 15.8 µM (inactive) | 10.3 µM (inactive) | 12.4 µM (inactive) | 13.1 µM (inactive) | 10.2 µM (inactive) | 11.4 µM (inactive) |
| O=C1CCSC(=S)N1c1ccc(Br)c(Cl)c1 | 37.4 µM (inactive) | 42.9 µM (inactive) | 27.1 µM (inactive) | 23.7 µM (inactive) | 24.4 µM (inactive) | 20.2 µM (inactive) | 21.1 µM (inactive) | 28.1 µM (inactive) | 22.2 µM (inactive) | 31.9 µM (inactive) | 17.9 µM (inactive) | 27.3 µM (inactive) | 30.5 µM (inactive) | 24.8 µM (inactive) | 18.5 µM (inactive) | 29.6 µM (inactive) | 36.5 µM (inactive) | 32 µM (inactive) | 19.9 µM (inactive) | 21.8 µM (inactive) |
| CC(C)(C)OC(=O)NCC(CNC(=O)OC(C)(C)C)C(N)=O | > 100 µM (inactive) | > 100 µM (inactive) | > 100 µM (inactive) | > 100 µM (inactive) | > 100 µM (inactive) | > 100 µM (inactive) | > 100 µM (inactive) | > 100 µM (inactive) | > 100 µM (inactive) | > 100 µM (inactive) | > 100 µM (inactive) | > 100 µM (inactive) | > 100 µM (inactive) | > 100 µM (inactive) | > 100 µM (inactive) | > 100 µM (inactive) | > 100 µM (inactive) | > 100 µM (inactive) | > 100 µM (inactive) | > 100 µM (inactive) |
